Results published in EP0214009A2, “Enaminones as potential prodrugs of primary and secondary amines” (priority 1985, dated 1987).
Like-named read-outs stand apart in the source and are kept apart here.

Columns and labels:
[1] = Chemical hydrolysis in isotonic Sorensen phosphate buffer, followed spectrophotometrically; format: physicochemical; settings: pH 7.4, 25°C, no enzyme, read-out: apparent half lives for chemical hydrolysis
[2] = Hydrolysis in the presence of rat intestinal homogenates; format: in vitro ADME
[3] = Hydrolysis in the presence of rat plasma; format: in vitro ADME
carbonic anhydrase = test: Hydrolysis in the presence of carbonic anhydrase; format: in vitro ADME
[4] = Hydrolysis in the presence of human plasma; format: in vitro ADME
[5] = Hydrolysis in the presence of rat liver homogenates; format: in vitro ADME
[6] = Hydrolysis in the presence of porcine liver esterase (half-lives, Michaelis-Menten parameters from Lineweaver Burk plots); format: in vitro ADME; settings: pig; 60 × 10⁻⁴ units/ml porcine liver esterase, initial substrate concentration 16 µM, pH 7.4, 25°C; read-out: apparent half lives in the presence of porcine liver esterase
Porcine liver esterase = test: as above; format: in vitro ADME

CCOC(=O)C1=C(Nc2ccccc2)CCCC1 [Example 2, Ethyl 2-(N-phenylamino)-l-cyclohexene-l-carboxylate]
half-life [1]: 18 min
Catalysis of the hydrolysis [2]: not observed
Catalysis of the hydrolysis [3]: not observed
Catalysis of the hydrolysis (carbonic anhydrase): not observed
Catalysis of the hydrolysis [4]: not observed
Catalysis of the hydrolysis [5]: not observed
half-life at 16 µM [6]: 10 min
Km (Porcine liver esterase; average over the three enzyme concentrations, read-out: Average Km): 7.2 mM
Vmax ± S.D. (Porcine liver esterase; enzyme concentration 16.7 (Units/ml x 10^4)): 45.5 ± 3 mM/h
Km (Porcine liver esterase; enzyme concentration 16.7 (Units/ml x 10^4), read-out: Km ± S.D.): 11.2 ± 0.1 mM
Vmax ± S.D. (Porcine liver esterase; enzyme concentration 32.4 (Units/ml x 10^4)): 56.8 ± 8 mM/h
Km (Porcine liver esterase; enzyme concentration 32.4 (Units/ml x 10^4), read-out: Km ± S.D.): 5.3 ± 0.2 mM
Vmax ± S.D. (Porcine liver esterase; enzyme concentration 61.2 (Units/ml x 10^4)): 95.2 ± 10 mM/h
Km (Porcine liver esterase; enzyme concentration 61.2 (Units/ml x 10^4), read-out: Km ± S.D.): 5.2 ± 0.2 mM
